Assay [1] has as its system murine lymphocytes (sheep red blood cells as antigen). The assay can be described thus: Antigen-specific adjuvanticity: direct anti-SRBC plaque forming cells, murine system. Format: cell-based, mouse. The conditions noted are these: for Direct anti-SRBC PFC/Culture at supraoptimal concentration: 3 × 10^-4 M. The procedure, abridged: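 Murine spleen cells (5×10^6 to 10^7) cultured 4 or 5 days in 1.0 ml 5% FCS RPMI 1640, 37 °C, 10% CO2, with or without SRBC immunogen. Anti-SRBC direct plaque-forming cells counted per culture by modified Jerne–Nordin hemolytic plaque assay with guinea pig complement; mean ± standard error at peak concentration.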

The test system of assay [2] is anti-TNP-BSA antibody titers in CBA/CaJ mice. Put plainly: In vivo anti-TNP-BSA antibody response (ELISA). More on the design: species or system mouse. The conditions noted are these: i.p., 0.2 ml at 5 mg/ml, 37 days. On the procedure: FIG. 4 is a graph containing a number of plots that illustrate the in vivo kinetics of enhanced anti-trinitrophenyl bovine serum albumin (TNP-BSA) antibody responses elicited by contacting leukocytes in vivo with a composition containing 7-allyl-8-mercaptoguanosine (7a8MGuo). Here, the guanosine derivative (0.2 ml of 7a8MGuo at 5 mg/ml) was in a vehicle of 100 percent sesame oil (solid line) or 2 percent sesame oil in saline (dotted line) when introduced into the animal.
Three groups of CBA/CaJ mice were utilized. Each group was immunized with the TNP-BSA conjugate. […]
Antibody titers to TNP-BSA were determined over a period of 37 days using standard enzyme-linked immunosorbent assay (ELISA) procedures with TNP-BSA as antigen. […]
CBA/CaJ mice were immunized intraperitonally (i.p.) using a conjugate (TNP-BSA) prepared by the reaction of 2,4,6-trinitrobenzene sulfonic acid (TNBS) and bovine serum albumin (BSA) in a 0.28 molar cacodylate buffer, at pH 6.9. […] Anti-TNP-BSA antibody secretion from each group was thereafter monitored over a period of 37 days by standard enzyme-linked immunosorbant assay (ELISA) techniques using TNP-BSA as antigen.
Injections. […] Anti-TNP-BSA antibody titers were determined using standard techniques.
In general terms: ELISA stands for enzyme-linked immunosorbent assay.

The structures appear in SMILES notation.

Consider `C=CCn1c(=S)n([C@@H]2O[C@H](CO)[C@@H](O)[C@H]2O)c2nc(N)[nH]c(=O)c21` [7a8MGuo, 7-(2-Propenyl)-8-thioxoguanosine], for which the “Direct anti-SRBC PFC/Culture at supraoptimal concentration” value was determined as 925 ± 80 PFC/Culture in assay [1] (Table 5, supraoptimal concentration (*)) and 925 ± 80 PFC/Culture in assay [1] (Table 6, study b, supraoptimal amount (*)). For the same compound, the “Peak Direct anti-SRBC PFC/Culture” value in assay [1] (Table 5, murine system, at peak concentration) is recorded as 1850 ± 70 PFC/Culture; in assay [1] (Table 6, murine system, at peak concentration), 1867 ± 150 PFC/Culture; in assay [1] (Table 6, study a), 1850 ± 50 PFC/Culture; in assay [1] (Table 6, study c), 1975 ± 109 PFC/Culture. Moreover, the “Direct Anti-SRBC PFC/Culture” value in assay [1] (Table 8, 1 × 10^-5 M) is 1049 PFC/Culture. Also, the “Average 1 Log Plaque Values” in assay [1] (Table 9, murine, * = single study) was 326,840 ± 170,907 per micromole. Moreover, the “adjuvanticity higher / more active than comparison compound of U.S. Pat. No. 4,643,992” value in assay [1] (murine system (Table 5), vs 7m8oGuo or compounds of that patent) is given as “more than 100%”. The “anti-TNP-BSA antibody titer, ratio to control” value in assay [2] (2 percent sesame oil in saline vehicle) is reported as “about 4 times”; in assay [2] (100 percent sesame oil vehicle), “about 5 times”.

(Values after patent US5011828A, “Immunostimulating guanine derivatives, compositions and methods” (priority 1988, dated 1991).)
